According to US20210038545A1 (priority 2018, published 2021):

System: S. pneumoniae
Conditions: mice colonized with IAV (H1N1, 7 dpi) microbiota; acetate five days before 1×10^6 CFUs; vs vehicle-treated transplanted animals; FIG. 4A

SMILES: CC(=O)O [acetate]
- resistance to S. pneumoniae challenge: more resistant
